Measurements published in patent US5482941A, “Quinazolinone antianginal agents” (Pfizer Inc., priority 1991, dated 1996).

Assays:
[1] = test system: rabbit; experiment: Safety profile, acute toxicity in rabbit; format: in vivo
[2] = test system: calcium/calmodulin (Ca/CAM)-independent cGMP PDE; experiment: In vitro inhibition of Ca/CAM-independent cGMP PDE; format: biochemical, rabbit; conditions: between Ca/CAM-independent cGMP PDE and cGMP-inhibited cAMP PDE (IC50 cAMP / IC50 cGMP)
Description: (§1) Phosphodiesterase activity
(§2) Compound affinities for cGMP and cAMP PDEs are assessed by determination of their IC50 values (the concentration of inhibitor required for 50% inhibition of enzyme activity). The PDE enzymes are isolated from rabbit platelets and rat kidney, essentially by the method of W. J. Thompson et al. (Biochem., 1971, 10, 311). The calcium/calmodulin (Ca/CAM)-independentcGMP PDE and the cGMP-inhibited cAMP PDE enzymes are obtained from rabbit platelets whilst, of the four major PDE enzymes of the rat kidney, the Ca/CAM-dependent cGMP PDE (fraction I) is isolated. Assays are performed using a modification of the "batch" method of W. J. Thompson and M. M. Appleman (Biochem., 1979, 18, 5228).

[3] = target: T1, calcium/calmodulin (Ca/CAM)-independent cGMP PDE (Oryctolagus cuniculus, UniProt G1SX67); experiment: In vitro inhibition of Ca/CAM-independent cGMP PDE; format: biochemical, rabbit; conditions: Ca/CAM-independent cGMP PDE from rabbit platelets, in vitro
T1 construct: The PDE enzymes are isolated from rabbit platelets and rat kidney; from tissue; host or cells: rabbit platelets
Description: as §1, §2

[4] = target: T2, cGMP-inhibited cAMP PDE (Oryctolagus cuniculus, UniProt G1ST54); experiment: In vitro inhibition of cGMP-inhibited cAMP PDE; format: biochemical; conditions: cGMP-inhibited cAMP PDE from rabbit platelets
T2 construct: The PDE enzymes are isolated from rabbit platelets and rat kidney; from tissue; host or cells: rabbit platelets
T2 sequence (G1ST54 1-1128): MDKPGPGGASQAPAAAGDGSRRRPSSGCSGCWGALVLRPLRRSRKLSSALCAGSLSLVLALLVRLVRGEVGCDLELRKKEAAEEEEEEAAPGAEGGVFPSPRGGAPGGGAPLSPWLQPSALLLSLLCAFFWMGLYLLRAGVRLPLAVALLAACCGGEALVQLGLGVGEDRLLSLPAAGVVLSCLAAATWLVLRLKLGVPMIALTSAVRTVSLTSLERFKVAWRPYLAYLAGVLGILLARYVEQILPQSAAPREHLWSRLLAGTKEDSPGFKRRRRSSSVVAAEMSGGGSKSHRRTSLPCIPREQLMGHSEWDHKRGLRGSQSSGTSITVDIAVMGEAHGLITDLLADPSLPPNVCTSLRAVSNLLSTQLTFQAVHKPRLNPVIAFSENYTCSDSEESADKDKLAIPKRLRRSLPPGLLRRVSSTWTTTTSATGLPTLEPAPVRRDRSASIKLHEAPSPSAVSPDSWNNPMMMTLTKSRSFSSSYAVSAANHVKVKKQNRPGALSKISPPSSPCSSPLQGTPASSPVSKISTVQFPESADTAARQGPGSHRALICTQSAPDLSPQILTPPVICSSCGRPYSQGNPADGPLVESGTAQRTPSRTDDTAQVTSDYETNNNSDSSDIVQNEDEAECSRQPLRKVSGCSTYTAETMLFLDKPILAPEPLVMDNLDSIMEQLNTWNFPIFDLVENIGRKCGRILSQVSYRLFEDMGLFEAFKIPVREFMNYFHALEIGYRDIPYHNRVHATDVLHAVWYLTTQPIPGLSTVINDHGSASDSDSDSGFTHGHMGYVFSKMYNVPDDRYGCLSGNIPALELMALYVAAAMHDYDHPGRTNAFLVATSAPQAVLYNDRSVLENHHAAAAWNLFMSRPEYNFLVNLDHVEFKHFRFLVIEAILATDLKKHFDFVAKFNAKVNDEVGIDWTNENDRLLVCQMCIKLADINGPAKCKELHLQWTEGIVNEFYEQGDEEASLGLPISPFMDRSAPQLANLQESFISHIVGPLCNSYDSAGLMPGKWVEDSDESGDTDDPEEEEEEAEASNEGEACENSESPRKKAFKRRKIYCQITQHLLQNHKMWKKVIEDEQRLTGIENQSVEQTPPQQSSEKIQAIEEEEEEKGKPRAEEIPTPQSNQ
Description: as §1, §2

Structure (SMILES): CCOc1ccc(S(=O)(=O)N2CCN(CCO)CC2)cc1-c1nc2c(C)cccc2c(=O)[nH]1 [Example 5, 2-{2-Ethoxy-5-[4-(2-hydroxyethyl)-1-piperazinylsulphonyl]phenyl}-8-methylquinazolin-4(3H)-one]
- signs of adverse acute toxicity ([1]; doses of up to 10 mg/kg i.d.): no signs of adverse acute toxicity being observed
- SELECTIVITY RATIO [2]: > 2,702
- IC50 [3]: 37 nM
- IC50 [4]: > 100000 nM

Structure (SMILES): CCCOc1ccc(C=CC(=O)OC(C)(C)C)cc1-c1nc2c(C)cccc2c(=O)[nH]1 [Example 10, t-Butyl 3-(8-methylquinazolin-4(3H)-on-2-yl)-4-n-propoxycinnamate]
- SELECTIVITY RATIO [2]: > 1,851
- IC50 [3]: 54 nM
- IC50 [4]: > 100000 nM

Structure (SMILES): CCCOc1ccc(S(=O)(=O)N2CCN(CCO)CC2)cc1-c1nc2c(C)cccc2c(=O)[nH]1 [Example 6]
- SELECTIVITY RATIO [2]: > 15,384
- IC50 [3]: 6.5 nM
- IC50 [4]: > 100000 nM

Structure (SMILES): CCOc1ccc(S(=O)(=O)N2CCN(CCO)CC2)cc1-c1nc2cccc(C)c2c(=O)[nH]1 [Example 4, 2-{2-Ethoxy-5-[4-(2-hydroxyethyl)-1-piperazinylsulphonyl]phenyl}-5-methylquinazolin-4(3H)-one]
- signs of adverse acute toxicity ([1]; doses of up to 10 mg/kg i.d.): no signs of adverse acute toxicity being observed

Structure (SMILES): CCCOc1ccc(C=CC(=O)N2CCN(C)CC2)cc1-c1nc2c(C)cccc2c(=O)[nH]1 [Example 9]
- signs of adverse acute toxicity ([1]; doses of up to 1 mg/kg i.d.): no signs of adverse acute toxicity being observed
- SELECTIVITY RATIO [2]: > 2,702
- IC50 [3]: 37 nM
- IC50 [4]: > 100000 nM

Structure (SMILES): CCOc1ccc(S(=O)(=O)N2CCN(CCO)CC2)cc1-c1nc2c(C(N)=O)cccc2c(=O)[nH]1 [Example 19, 8-Carbamoy-2-{2-ethoxy-5-[4-(2-hydroxyethyl)-1-piperazinylsulphonyl]phenyl}quinazolin-4(3H)-one]
- SELECTIVITY RATIO [2]: 1,970
- IC50 [3]: 34 nM
- IC50 [4]: 67000 nM

Structure (SMILES): CCOc1ccc(C(O)CN2CCOCC2)cc1-c1nc2c(C)cccc2c(=O)[nH]1 (centres unmarked) [Example 17, 2-[2-Ethoxy-5-(1-hydroxy-2-morpholinoethyl)phenyl]-8-methylquinazolin-4(3H)-one]
- SELECTIVITY RATIO [2]: > 1,886
- IC50 [3]: 53 nM
- IC50 [4]: > 100000 nM

Structure (SMILES): CCCOc1ccccc1-c1nc2c(C(=O)NCC)cccc2c(=O)[nH]1 [Example 21, 8-Ethylcarbamoyl-2-(2-n-propoxyphenyl)quinazolin-4(3H)-one]
- SELECTIVITY RATIO [2]: > 7,142
- IC50 [3]: 14 nM
- IC50 [4]: > 100000 nM

Structure (SMILES): CCCOc1ccc(C(C)=O)cc1-c1nc2c(C)cccc2c(=O)[nH]1 [Example 22, 2-(5-Acetyl-2-n-propoxyphenyl)-8-methylquinazolin-4(3H)-one]
- IC50 [3]: 49 nM
- IC50 [4]: > 100000 nM
